Measurements: US10450311B2, “Pesticidally active heterocyclic derivatives with sulphur containing substituents” (Syngenta Participations AG, priority 2014, dated 2019)

Legend:
Format in all cases: in vivo
[1] = tested on: Euschistus heros (Neotropical Brown Stink Bug); assay: Activity against Euschistus heros, sprayed soybean leaf; details: 120 h, application rate of 200 ppm, N-2 nymphs on soybean leaf, 5 days after infestation
Protocol: Example B3: Activity Against Euschistus heros (Neotropical Brown Stink Bug)
Soybean leaf on agar in 24-well microtiter plates were sprayed with aqueous test solutions prepared from 10′000 ppm DMSO stock solutions. After drying the leaf were infested with N-2 nymphs. The samples were assessed for mortality 5 days after infestation.

[2] = tested on: Myzus persicae (Green Peach Aphid); assay: Activity against Myzus persicae, sprayed sunflower leaf discs; details: foliar, 144 h, application rate of 200 ppm, aphid population of mixed ages on sunflower leaf discs, 6 days after infestation
Protocol: Example B5: Activity Against Myzus persicae (Green Peach Aphid)
Sunflower leaf discs were placed on agar in a 24-well microtiter plate and sprayed with aqueous test solutions prepared from 10′000 ppm DMSO stock solutions. After drying, the leaf discs were infested with an aphid population of mixed ages. The samples were assessed for mortality 6 days after infestation.

[3] = tested on: Tetranychus urticae (Two-Spotted Spider Mite); assay: Activity against Tetranychus urticae, feeding/contact activity; details: foliar, 192 h
Protocol: Example B12: Activity Against Tetranychus urticae (Two-Spotted Spider Mite): Feeding/Contact Activity
Bean leaf discs on agar in 24-well microtiter plates were sprayed with aqueous test solutions prepared from 10′000 ppm DMSO stock solutions. After drying the leaf discs were infested with a mite population of mixed ages. The samples were assessed for mortality on mixed population (mobile stages) 8 days after infestation.

[4] = tested on: Bemisia tabaci (Cotton White Fly); assay: Activity against Bemisia tabaci, sprayed cotton leaf discs; details: foliar, 144 h, application rate of 200 ppm, adult white flies on cotton leaf discs, 6 days after incubation
Protocol: Example B1: Activity Against Bemisia tabaci (Cotton White Fly)
Cotton leaf discs were placed on agar in 24-well microtiter plates and sprayed with aqueous test solutions prepared from 10′000 ppm DMSO stock solutions. After drying the leaf discs were infested with adult white flies. The samples were checked for mortality 6 days after incubation. […] A35, A36 and A47. A1. A2, A3, A8, A10, A14 and A12.

[5] = tested on: Diabrotica balteata (Corn Root Worm); assay: Activity against Diabrotica balteata, sprayed maize sprouts; details: 96 h, application rate of 200 ppm, larvae on maize sprouts, 4 days after infestation
Protocol: Example B2: Activity Against Diabrotica balteata (Corn Root Worm)
Maize sprouts, placed on an agar layer in 24-well microtiter plates were treated with aqueous test solutions prepared from 10′000 ppm DMSO stock solutions by spraying. After drying, the plates were infested with […] (6 to 10 per well). The samples were assessed for mortality 4 days after infestation.

[6] = tested on: Frankliniella occidentalis (Western Flower Thrips); assay: Activity against Frankliniella occidentalis, sprayed sunflower leaf discs; details: foliar, 168 h, application rate of 200 ppm, population of mixed ages on sunflower leaf discs, 7 days after infestation
Protocol: Example B4: Activity Against Frankliniella occidentalis (Western Flower Thrips)
Sunflower leaf discs were placed on agar in 24-well microtiter plates and sprayed with aqueous test solutions prepared from […] stock solutions. After drying the leaf discs were infested with a Frankliniella population of mixed ages. The samples were assessed for mortality 7 days after infestation.

[7] = tested on: Myzus persicae (Green Peach Aphid); assay: Activity against Myzus persicae, roots of infested pea seedlings in test solution; details: 144 h, test rate of 24 ppm, 6 days
Protocol: Example B6: Activity Against Myzus persicae (Green Peach Aphid)
Roots of pea seedlings infested with an aphid population of mixed ages were placed directly in the aqueous test solutions prepared from 10′000 DMSO stock solutions. The samples were assessed for mortality 6 days after placing seedlings in test solutions.

[8] = tested on: Myzus persicae (Green Peach Aphid); assay: Activity against Myzus persicae, sucrose solution under Parafilm; details: 120 h, test rate of 12 ppm, mixed with sucrose solution, 5 days after infestation
Source text: Example B7: Activity Against Myzus persicae (Green Peach Aphid)
Test compounds from 10′000 ppm DMSO stock solutions were applied by pipette into 24-well microtiter plates and mixed with sucrose solution. The plates were closed with a stretched Parafilm. A plastic stencil with 24 holes was placed onto the plate and infested pea seedlings were placed directly on the Parafilm. The infested plate was closed with a gel blotting paper and another plastic stencil and then turned upside down. The samples were assessed for mortality 5 days after infestation. […] A30 and A32.

[9] = tested on: Plutella xylostella (Diamond Back Moth); assay: Activity against Plutella xylostella, treated artificial diet; details: 120 h, application rate of 200 ppm, L2 larvae on artificial diet, 5 days after infestation, read-out: effect in at least one of the two categories (mortality or growth inhibition)
Protocol: Example B8: Activity Against Plutella xylostella (Diamond Back Moth)
24-well microtiter plates with artificial diet were treated with aqueous test solutions prepared from 10′000 ppm DMSO stock solutions by pipetting. After drying, the plates were infested with L2 larvae (10 to 15 per well). The samples were assessed for mortality and growth inhibition in comparison to untreated samples 5 days after infestation.

[10] = tested on: Spodoptera littoralis (Egyptian Cotton Leaf Worm); assay: Activity against Spodoptera littoralis, sprayed cotton leaf discs; details: foliar, 72 h, application rate of 200 ppm, L1 larvae on cotton leaf discs, 3 days after infestation, read-out: control (at least one of mortality, anti-feedant effect, growth inhibition)
Protocol: Example B9: Activity Against Spodoptera littoralis (Egyptian Cotton Leaf Worm)
Cotton leaf discs were placed on agar in 24-well microtiter plates and sprayed with aqueous test solutions prepared from 10′000 ppm DMSO stock solutions. After drying the leaf discs were infested with five L1 larvae. The samples were assessed for mortality, anti-feedant effect, and growth inhibition in comparison to untreated samples 3 days after infestation. Control of Spodoptera littoralis by a test sample is when at least one of mortality, anti-feedant effect, and growth inhibition is higher than the untreated sample.

[11] = tested on: Spodoptera littoralis (Egyptian Cotton Leaf Worm); assay: Activity against Spodoptera littoralis, compound in agar taken up by lettuce; details: 144 h, test rate of 12.5 ppm, lettuce root uptake, 6 days after infestation, read-out: effect in at least one of the three categories (mortality, anti-feedancy, or growth inhibition)
Source text: Example B10: Activity Against Spodoptera littoralis (Egyptian Cotton Leaf Worm)
Test compounds were applied by pipette from 10′000 ppm DMSO stock solutions into 24-well plates and mixed with agar. Lettuce seeds were placed on the agar and the multi well plate was closed by another plate which contains also agar. After 7 days the roots have absorbed the compound and the lettuce has grown into the lid plate. The lettuce leafs were now cut off into the lid plate. Spodoptera eggs were pipetted through a plastic stencil on a humid gel blotting paper and the plate closed with it. The samples were assessed for mortality, anti-feedant effect and growth inhibition in comparison to untreated samples 6 days after infestation.

[12] = tested on: Spodoptera littoralis (Egyptian Cotton Leaf Worm); assay: Activity against Spodoptera littoralis, systemic activity; details: 144 h, test rate of 12.5 ppm, in agar, lettuce root uptake, 6 days after infestation
Source text: Example B11: Activity Against Spodoptera littoralis (Egyptian Cotton Leaf Worm), Systemic Activity
Test compounds were applied by pipette from 10′000 ppm DMSO stock solutions into 24-well plates and mixed with agar. Lettuce seeds were placed on the agar and the multi well plate was closed by another plate which contains also agar. After 7 days the roots have absorbed the compound and the lettuce has grown into the lid plate. The lettuce leafs were now cut off into the lid plate. Spodoptera eggs were pipetted through a plastic stencil on a humid gel blotting paper and the plate closed with it. The samples were assessed for mortality 6 days after infestation.

[13] = tested on: Thrips tabaci (Onion Thrips); assay: Activity against Thrips tabaci, feeding/contact activity; details: foliar, 144 h, application rate of 200 ppm, thrips population of mixed ages on sunflower leaf discs, 6 days after infestation
Protocol: Example B13: Activity Against Thrips tabaci (Onion Thrips) Feeding/Contact Activity
Sunflower leaf discs were placed on agar in 24-well microtiter plates and sprayed with aqueous test solutions prepared from 10′000 ppm DMSO stock solutions. After drying the leaf discs were infested with a thrips population of mixed ages. The samples were assessed for mortality 6 days after infestation.

[14] = tested on: Aedes aegypti (Yellow Fever Mosquito); assay: whole plant or invertebrate; details: 48 h, test rate of 5 ppm, L2 larvae in 96-well plates, incubation period of 2 days, read-out: effect in at least one of the two categories (mortality or growth inhibition)
Protocol: Example B14: Activity Against Aedes aegypti (Yellow Fever Mosquito)
10 to 15 Aedes larvae (L2) together with a nutrition mixture were placed in 96-well microtiter plates. Test compounds were pipetted into the wells. After an incubation period of 2 days insects were assessed for mortality and growth inhibition.

CCSc1cc(Br)cnc1-c1nc2cc(C(F)(F)F)n(C)c(=O)c2n1C [Compound A20, 2-(5-bromo-3-ethylsulfanyl-2-pyridyl)-3,5-dimethyl-6-(trifluoromethyl)imidazo[4,5-c]pyridin-4-one]
≥ 80%: mortality at 200 ppm [1] | mortality at 200 ppm [2] | mortality at 200 ppm [3]

CCS(=O)(=O)c1cc(C(F)(F)F)cnc1-c1nc2cc(C(F)(F)F)n(C)c(=O)c2n1C [Compound A1, 2-[3-ethylsulfonyl-5-(trifluoromethyl)-2-pyridyl]-3,5-dimethyl-6-(trifluoromethyl)imidazo[4,5-c]pyridin-4-one]
≥ 80%: mortality at 200 ppm [4] | mortality at 200 ppm [5] | mortality at 200 ppm [1] | mortality at 200 ppm [6] | mortality at 200 ppm [2] | mortality at 24 ppm [7] | mortality at 12 ppm [8] | percent effect (mortality or growth inhibition) at 200 ppm [9] | percent control (mortality, anti-feedant effect or growth inhibition) at 200 ppm [10] | percent control (mortality, anti-feedancy or growth inhibition) at 12.5 ppm [11] | mortality at 12.5 ppm [12] | mortality at 200 ppm [13] | percent effect (mortality or growth inhibition) at 5 ppm [14]

CCS(=O)(=O)c1cc(C(F)(F)C(F)(F)F)cnc1-c1nc2cc(C(F)(F)F)n(C)c(=O)c2n1C [Compound A46, 2-[3-ethylsulfonyl-5-(1,1,2,2,2-pentafluoroethyl)-2-pyridyl]-3,5-dimethyl-6-(trifluoromethyl)imidazo[4,5-c]pyridin-4-one]
≥ 80%: mortality at 200 ppm [5] | mortality at 200 ppm [1] | mortality at 200 ppm [6] | mortality at 200 ppm [2] | percent effect (mortality or growth inhibition) at 200 ppm [9] | percent control (mortality, anti-feedant effect or growth inhibition) at 200 ppm [10] | percent control (mortality, anti-feedancy or growth inhibition) at 12.5 ppm [11] | mortality at 12.5 ppm [12] | mortality at 200 ppm [13] | percent effect (mortality or growth inhibition) at 5 ppm [14]
